Assays:
[1] = molecular target: Beta Secretase enzyme (BACE) (Homo sapiens, UniProt P56817); assay: In vitro enzymatic BACE FRET (fluorescence resonance energy transfer) assay; format: biochemical; settings: average IC50, enzyme assay; read-out: BACE 1 FRET assay
In short: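 Cleavage of a 50 nM fluorophore/quencher peptide FRET substrate by BACE for 1 h in 0.05 M acetate pH 4.2, 10% DMSO, 100 uM genapol. Reaction stopped with Tris to neutral pH before fluorescence reading.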

[2] = test system: Aβ40 in conditioned medium of cells stably expressing Amyloid Precursor Protein (APP); assay: In vitro BACE cell-based assay (Aβ40 in conditioned medium, sandwich ELISA); settings: Homo sapiens, HEK293, average IC50, HEK cells; read-out: HEK cell assay
In short: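 Step two: 10-point compound titration added, starting 100 μM or 10 μM, 0.1% DMSO. Step three: medium Aβ40 measured by ELISA, capture 3 h and detection 2 h at 4° C, TRF read.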

Beta Secretase enzyme (BACE), sequence (P56817 46-501, species assumed): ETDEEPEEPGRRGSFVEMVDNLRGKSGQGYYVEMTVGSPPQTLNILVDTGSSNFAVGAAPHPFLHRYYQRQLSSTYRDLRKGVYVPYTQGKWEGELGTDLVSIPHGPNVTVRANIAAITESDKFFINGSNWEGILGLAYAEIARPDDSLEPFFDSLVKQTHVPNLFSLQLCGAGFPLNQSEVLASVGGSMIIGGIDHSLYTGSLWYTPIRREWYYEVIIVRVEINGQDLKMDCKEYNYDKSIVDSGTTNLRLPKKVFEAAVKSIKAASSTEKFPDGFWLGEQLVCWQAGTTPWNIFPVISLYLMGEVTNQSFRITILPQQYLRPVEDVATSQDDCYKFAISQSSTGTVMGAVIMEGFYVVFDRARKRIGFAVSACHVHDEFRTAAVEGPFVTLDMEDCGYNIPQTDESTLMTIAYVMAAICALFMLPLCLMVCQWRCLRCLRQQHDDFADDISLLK

SMILES	IC50 [1] [nM]	IC50 [2] [nM]
Cc1cc(-c2cc(F)c3c(c2)[C@]2(COC(N)=N2)c2cc(OCC4(C)COC4)ccc2O3)ccn1 [Example 439, (4S)-4′-fluoro-7′-((3-methyl-3-oxetanyl)methoxy)-2′-(2-methyl-4-pyridinyl)spiro[1,3-oxazole-4,9′-xanthen]-2-amine]	186	156
Cc1ccc(-c2cc(F)c3c(c2)[C@]2(COC(N)=N2)c2cc(OCC4(C)COC4)ccc2O3)cn1 [Example 440, (4S)-4′-fluoro-7′-((3-methyl-3-oxetanyl)methoxy)-2′-(6-methyl-3-pyridinyl)spiro[1,3-oxazole-4,9′-xanthen]-2-amine]	11.7	16.9
CC(C)(C#N)COc1ccc2c(c1)[C@@]1(COC(N)=N1)c1cc(C3=CCOCC3)cc(F)c1O2 [Example 441, 3-(((4S)-2-amino-7′-(3,6-dihydro-2H-pyran-4-yl)-5′-fluorospiro[1,3-oxazole-4,9′-xanthen]-2′-yl)oxy)-2,2-dimethylpropanenitrile]	4	14.4
CC(C)(C#N)COc1ccc2c(c1)[C@@]1(COC(N)=N1)c1cc(Br)cc(F)c1O2 [Example 442, 3-(((4S)-2-amino-7′-bromo-5′-fluorospiro[1,3-oxazole-4,9′-xanthen]-2′-yl)oxy)-2,2-dimethylpropanenitrile]	152	1810
Cn1cc(-c2cc(F)c3c(c2)[C@]2(COC(N)=N2)c2cc(OCC4(C)COC4)ccc2O3)cn1 [Example 444, (4S)-4′-fluoro-7′-((3-methyl-3-oxetanyl)methoxy)-2′-(1-methyl-1H-pyrazol-4-yl)spiro[1,3-oxazole-4,9′-xanthen]-2-amine]	20	38.6
Cc1cc(-c2cc(F)c3c(c2)[C@]2(COC(N)=N2)c2cc(OCC4(C)COC4)ccc2O3)cnc1F [Example 445, (4S)-4′-fluoro-2′-(6-fluoro-5-methyl-3-pyridinyl)-7′-((3-methyl-3-oxetanyl)methoxy)spiro[1,3-oxazole-4,9′-xanthen]-2-amine]	41.6	188
Cc1cncc(-c2ccc3c(c2)[C@@]2(COC(N)=N2)c2cc(C4=CCOCC4)cc(F)c2O3)c1 [Example 446, (4S)-2′-(3,6-dihydro-2H-pyran-4-yl)-4′-fluoro-7′-(5-methyl-3-pyridinyl)spiro[1,3-oxazole-4,9′-xanthen]-2-amine]	1.9	5.4
NC1=N[C@@]2(CO1)c1cc(-c3cncc(F)c3)ccc1Oc1c(F)cc(C3=CCOCC3)cc12 [Example 447, (4S)-2′-(3,6-dihydro-2H-pyran-4-yl)-4′-fluoro-7′-(5-fluoro-3-pyridinyl)spiro[1,3-oxazole-4,9′-xanthen]-2-amine]	1.1	5.1
NC1=N[C@@]2(CO1)c1cc(-c3cncc(F)c3)ccc1Oc1c(F)cc(C3CCOCC3)cc12 [Example 448, (4S)-4′-fluoro-7′-(5-fluoro-3-pyridinyl)-2′-(tetrahydro-2H-pyran-4-yl)spiro[1,3-oxazole-4,9′-xanthen]-2-amine]	2.4	7.7
CC1(C)C[C@@H](c2cc(F)c3c(c2)[C@]2(COC(N)=N2)c2cc(-c4cnccn4)ccc2O3)CCO1 [Example 449, (4S)-2′-((4S)-2,2-dimethyltetrahydro-2H-pyran-4-yl)-4′-fluoro-7′-(2-pyrazinyl)spiro[1,3-oxazole-4,9′-xanthen]-2-amine]	3.7	20
CC1(C)C[C@H](c2cc(F)c3c(c2)[C@]2(COC(N)=N2)c2cc(-c4cnccn4)ccc2O3)CCO1 [Example 450, (4S)-2′-((4R)-2,2-dimethyltetrahydro-2H-pyran-4-yl)-4′-fluoro-7′-(2-pyrazinyl)spiro[1,3-oxazole-4,9′-xanthen]-2-amine]	2.4	17.7
NC1=N[C@@]2(CO1)c1cc(-c3cccnc3F)ccc1Oc1c(F)cc(-c3ccnc(F)c3)cc12 [Example 451, (4S)-4′-fluoro-7′-(2-fluoro-3-pyridinyl)-2′-(2-fluoro-4-pyridinyl)spiro[1,3-oxazole-4,9′-xanthen]-2-amine]	0.5	10.3

Reference: patent publication US8883782B2, “Spiro-tetracyclic ring compounds as beta-secretase modulators and methods of use” (Amgen Inc., priority 2010, dated 2014)
